In ChEMBL document CHEMBL4619820, “Development of Novel AKR1C3 Inhibitors as New Potential Treatment for Castration-Resistant Prostate Cancer” (J Med Chem, 2020):
Active and inactive are the calls of the source. The calls are words filed in the database; no cut-off is given here.

The molecules below were run against T1, Androgen receptor (Homo sapiens) (UniProt P10275) (assay: Agonistic activity at AR in human 22Rv1 cells assessed as effect on cell number at 1 nM by CCK8 assay). Settings: CWR22R.
T1 sequence (whole entry): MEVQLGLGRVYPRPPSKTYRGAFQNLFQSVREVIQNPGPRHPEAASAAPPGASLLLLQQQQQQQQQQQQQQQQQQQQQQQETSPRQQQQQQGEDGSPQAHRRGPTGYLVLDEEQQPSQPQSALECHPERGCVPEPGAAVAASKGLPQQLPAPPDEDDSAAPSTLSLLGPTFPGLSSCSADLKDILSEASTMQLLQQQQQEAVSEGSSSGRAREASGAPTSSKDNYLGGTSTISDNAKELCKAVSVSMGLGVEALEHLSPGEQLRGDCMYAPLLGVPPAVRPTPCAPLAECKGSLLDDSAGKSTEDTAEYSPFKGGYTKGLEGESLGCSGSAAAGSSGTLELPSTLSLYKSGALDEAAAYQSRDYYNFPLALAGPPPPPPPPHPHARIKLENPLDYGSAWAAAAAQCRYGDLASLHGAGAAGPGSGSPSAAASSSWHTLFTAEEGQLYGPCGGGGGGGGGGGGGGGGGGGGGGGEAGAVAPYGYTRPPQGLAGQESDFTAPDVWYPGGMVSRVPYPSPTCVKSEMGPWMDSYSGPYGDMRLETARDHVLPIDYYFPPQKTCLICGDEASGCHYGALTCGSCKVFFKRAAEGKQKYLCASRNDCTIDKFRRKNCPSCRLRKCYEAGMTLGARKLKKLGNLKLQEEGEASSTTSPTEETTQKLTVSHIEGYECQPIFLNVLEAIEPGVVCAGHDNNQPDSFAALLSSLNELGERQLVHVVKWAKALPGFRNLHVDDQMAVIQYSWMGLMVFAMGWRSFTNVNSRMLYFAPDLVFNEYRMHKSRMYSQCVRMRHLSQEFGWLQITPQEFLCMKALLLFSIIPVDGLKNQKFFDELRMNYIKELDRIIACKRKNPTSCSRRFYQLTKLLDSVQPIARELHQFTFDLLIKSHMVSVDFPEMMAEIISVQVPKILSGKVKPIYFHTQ
Format: cell-based

| Activity | Structure (SMILES) |
| --- | --- |
| inactive | N=c1oc2c(O)cccc2cc1C(=O)Nc1cccc(O)c1 |
| inactive | N=c1oc2c(O)cccc2cc1C(=O)Nc1ccc(F)c(F)c1 |
| inactive | N=c1oc2c(O)cccc2cc1C(=O)Nc1cc(F)c(F)c(F)c1 |
| inactive | N=c1oc2c(O)cccc2cc1C(=O)Nc1ccccc1F |

The molecules below were run against T2, Aldo-keto reductase family 1 member C3 (Homo sapiens, UniProt P42330) (assay: Inhibition of recombinant AKR1C3 (unknown origin) assessed as reduction in S-tetralol-induced dehydrogenase activity by measuring NADPH level). Settings: not given.
T2 sequence (P42330 whole entry): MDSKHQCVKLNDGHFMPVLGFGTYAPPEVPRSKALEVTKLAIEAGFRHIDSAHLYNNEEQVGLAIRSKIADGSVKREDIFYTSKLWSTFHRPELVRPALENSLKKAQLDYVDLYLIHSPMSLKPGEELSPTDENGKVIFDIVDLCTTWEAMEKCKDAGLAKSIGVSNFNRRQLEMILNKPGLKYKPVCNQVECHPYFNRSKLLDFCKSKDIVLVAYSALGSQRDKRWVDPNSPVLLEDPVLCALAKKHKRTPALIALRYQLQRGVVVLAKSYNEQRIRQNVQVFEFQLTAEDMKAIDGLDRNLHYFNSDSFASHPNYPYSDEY

| Structure (SMILES) | IC50 [nM] |
| --- | --- |
| Cc1cccc(NC(=O)c2cc3cccc(O)c3oc2=N)c1 | 55 |
| N=c1oc2c(O)cccc2cc1C(=O)Nc1ccc(C(F)(F)F)cc1C(F)(F)F | 58 |
| CC(C)c1cccc(NC(=O)c2cc3cccc(O)c3oc2=N)c1 | 47 |
| N=c1oc2c(O)cccc2cc1C(=O)Nc1cccc(C(F)(F)F)c1 | 50 |
| CC(C)c1ccccc1NC(=O)c1cc2cccc(O)c2oc1=N | 30 |
| Cc1ccccc1NC(=O)c1cc2cccc(O)c2oc1=N | 52 |
| N=c1oc2c(O)cccc2cc1C(=O)Nc1ccc(F)c(F)c1 | 220 |
| N=c1oc2c(O)cccc2cc1C(=O)Nc1cc(F)c(F)c(F)c1 | 47 |
| N=c1oc2c(O)cccc2cc1C(=O)Nc1ccccc1F | 64 |

Second part, the molecule after the results:

| IC50 [nM] | Structure (SMILES) |
| --- | --- |
| 24 | N=c1oc2c(O)cccc2cc1C(=O)Nc1ccc(C(F)(F)F)cc1 |
| > 10000 | N=c1oc2ccc(O)cc2cc1C(=O)Nc1ccc(F)cc1 |
| > 10000 | COc1cccc2cc(C(=O)Nc3ccc(F)cc3)c(=N)oc12 |
| 370 | N=c1oc2cccc(O)c2cc1C(=O)Nc1ccc(F)cc1 |
| 60 | N=c1oc2c(O)cccc2cc1C(=O)Nc1cccc(O)c1 |
| > 10000 | N=c1oc2cc(O)ccc2cc1C(=O)Nc1ccc(F)cc1 |
